Active and inactive are the calls of the source. No cut-off for these calls is given here.
Columns and labels:
[1] = test system: Pseudomonas aeruginosa; experiment: Inhibition of Pseudomonas aeruginosa His-6-tagged PqsD expressed in Escherichia coli BL21 (lambdaDE3) using anthraniloyl-CoA/beta-ketodecanoic acid at 10 uM as substrate by LC-MS/MS analysis
[2] = test system: Escherichia coli; experiment: Inhibition of Escherichia coli RNAP assessed as incorporation of [5,6-3H]UTP at 100 uM preincubated for 10 mins followed by DNA template and ATP, CTP, GTP, UTP, [5,6-3H]UTP addition measured after 10 mins by scintillation counting analysis

`O=C(O)c1ccc(NC(=O)c2ccc(-c3ccccc3)cc2)cc1` was tested, and the inhibition [1] was “inactive” and the inhibition [2] was 15%.

— ChEMBL document CHEMBL3124812, “Benzamidobenzoic acids as potent PqsD inhibitors for the treatment of Pseudomonas aeruginosa infections” (Eur J Med Chem, 2014)
